Results from patent US10815221B2, “Crystal forms of an androgen receptor antagonist, preparation method and use thereof” (Crystal Pharmaceutical (Suzhou) Co., Ltd., priority 2016, dated 2020).
Converted amounts (≈) assume the structure as drawn. “Also recorded” adds a separate entry of the source.

Experiments:
Format in all cases: physicochemical
[1] = Particle size distribution (laser particle size analyzer); conditions: for D10 / D50 / D90 / MV (average particle size by volume): wet process, Isopar G
Experimental: The particle size distribution test in the present disclosure is acquired by the S3500 laser particle size analyzer of Microtrac. Microtrac S3500 is equipped with the SDC (Sample Delivery Controller). The test is carried out by wet process, and the dispersion medium is Isopar G. The parameters are as follows:
The particle size distribution of Form B in the present disclosure and Form I disclosed in WO2016120530A1 were tested.

[2] = Solubility in SGF, FeSSIF and FaSSIF by HPLC
Experimental: High Performance Liquid Chromatography (HPLC) data in the present disclosure are collected from Agilent 1260 with diode array detector (DAD).
The HPLC method parameters for solubility in the present disclosure are as follows:
1. Column: Agilent Infinity Lab Poroshell 120 EC-C18 150*3.0 mm, 2.7 μm
2. Mobile Phase: A: 25 mmol/L KH2PO4 aqueous solution
3. Flow rate: 0.7 mL/min 4. Injection Volume: 5 μL 5. Detection wavelength: 220 nm 6. Column Temperature: 40° C. 7. Diluent: Acetonitrile/H2O (v/v, 1/1)
(§1) Samples of Form B in the present disclosure and crystalline form I disclosed in WO2016120530A1 were suspended into SGF (simulated gastric fluids, pH=1.8), FeSSIF (Fed state simulated intestinal fluids, pH=5.0) and FaSSIF (Fasted state simulated intestinal fluids, pH=6.5) to get saturated solutions. After equilibrated for 1 hour and 4 hours, concentrations of the saturated solutions were measured by HPLC.
as §1, with “C” for “B”, “into” for “into SGF (simulated gastric fluids, pH=1.8),”

[3] = Hygroscopicity by dynamic vapor sorption (DVS); conditions: for Hygroscopicity / Weight gain under 80% RH: DVS, 80% RH; for Solid Form after DVS: XRPD after DVS test
Experimental: Dynamic vapor sorption (DVS) was applied to test hygroscopicity of Form B, Form C and crystalline form I in the prior art with about 10 mg of samples. The DVS plot of Form B is substantially as depicted in FIG. 10 and the XRPD pattern overlay before and after DVS test of Form B is substantially as depicted in FIG. 11. The DVS plot of Form C is substantially as depicted in FIG. 12 and the XRPD pattern overlay before and after DVS test of Form C is substantially as depicted in FIG. 13. The DVS plot of crystalline form I in the prior art is substantially as depicted in FIG. 14.

[4] = Storage stability of crystalline form (XRPD); conditions: for Change of Solid Form: 3 months
Experimental: Samples of Form B were stored under different conditions of 25° C./60% RH (open), 40° C./75% RH (open) for 3 months, and XRPD was applied to test the crystalline form.
Samples of Form C were stored at 25° C./60% RH (open) for 1 month, and XRPD was applied to test the crystalline form.

[5] = Grinding stability (XRPD before and after grinding); conditions: manually ground in a mortar for 5 minutes
Experimental: About 20 mg of Form C in the present disclosure and crystalline form I disclosed in WO2016120530A1 were manually ground in a mortar for 5 minutes. XRPD tests of the samples before and after grinding were carried out. The XRPD patterns of Form C were shown in FIG. 20 (top: XRPD pattern after grinding, bottom: XRPD pattern before grinding), and the XRPD patterns of crystalline form I were shown in FIG. 21 (top: XRPD pattern after grinding, bottom: XRPD pattern before grinding).

SMILES | Particle size distribution pattern [1] | D10 [1] [μm] | D50 [1] [μm] | D90 [1] [μm] | MV (average particle size by volume) [1] [μm] | Solubility ([2]; FaSSIF pH=6.5, 1 hour) [µg/mL] | Solubility ([2]; FaSSIF pH=6.5, 4 hours) [µg/mL] | Solubility ([2]; FeSSIF pH=5.0, 1 hour) [µg/mL] | Solubility ([2]; SGF pH=1.8, 1 hour) [µg/mL] | Solubility ([2]; SGF pH=1.8, 4 hours) [µg/mL] | solubility at 4 h ([2]; fed state simulated intestinal fluid (FeSSIF), pH 5, fessif, thermodynamic from solid, FeSSIF pH=5.0, 4 hours) [µg/mL] | Hygroscopicity [3] | Weight gain under 80% RH [3] [%] | Solid Form after DVS [3] | Time the form keeps stable ([4]; 25° C./60% RH) | Change of Solid Form ([4]; 25° C./60% RH (open)) | Time the form keeps stable ([4]; 40° C./75% RH) | Change of Solid Form ([4]; 40° C./75% RH (open)) | Crystallinity after grinding [5] | Solubility ([2]; FeSSIF pH=5.0, 4 hours) [µg/mL]
CC(O)c1cc(C(=O)N[C@@H](C)Cn2ccc(-c3ccc(C#N)c(Cl)c3)n2)n[nH]1 (single isomer, unassigned) [Form B] | unimodal and normal distribution | 1.20 | 2.73 | 5.49 | 3.12 | 3.0 (≈ 7.52 µM) | 0.5 (≈ 1.25 µM) | 408.1 (≈ 1020 µM) | 62.7 (≈ 157 µM) | 33.5 (≈ 84 µM) | 288 (≈ 722 µM) | slightly hygroscopic | 0.93 | remain unchanged; also recorded: Form B | at least 3 months | physically stable | at least 3 months | physically stable |  | 
CC(O)c1cc(C(=O)N[C@@H](C)Cn2ccc(-c3ccc(C#N)c(Cl)c3)n2)n[nH]1 (single isomer, unassigned) [Form C] |  |  |  |  |  | 39.0 (≈ 97.8 µM) | 35.5 (≈ 89 µM) | 469.6 (≈ 1180 µM) |  |  |  | slightly hygroscopic | 1.60 | remain unchanged; also recorded: Form C | at least 1 month |  |  |  | remains good crystallinity after grinding | 163.1 (≈ 409 µM)
CC(O)c1cc(C(=O)N[C@@H](C)Cn2ccc(-c3ccc(C#N)c(Cl)c3)n2)n[nH]1 (some centres unmarked) [Crystalline form I, reference compound] | bimodal distribution | 24.97 | 100.5 | 297.4 | 136.1 | 1.0 (≈ 2.51 µM) | 0.1 (≈ 0.251 µM) | 183.1 (≈ 459 µM) | 14.0 (≈ 35.1 µM) | 9.9 (≈ 24.8 µM) |  | hygroscopic | >2.37 |  |  |  |  |  | decreased significantly | 206.3 (≈ 517 µM)
